Data set [1] concerns mice sensitized to TDI (long term exposure). Put plainly: TDI induced ear swelling after long term (120 days) repeated exposure sensitization. It counts as in vivo. The following applies: 120 days sensitization, AWD 12-281 3% 1 h after challenge. On the procedure:
FIG. 4: Effect of AWD 12-281 on TDI induced ear swelling in mice sensitized to TDI using a long term (120 days) repeated exposure sensitization paradigm. Bars represent ear swelling 1, 5 and 24 h after TDI challenge.
Furthermore, an experiment was carried out to obtain information on the therapeutic effects of AWD 12-281 in a model of long term exposure to TDI. Thus 10 mice were treated with 100 μl 0.5% TDI on the abdominal skin in intervals of 10 days for 120 days. Ten days after the last abdominal TDI treatment, mice were challenged on the left ear with 20 μl 0.5% TDI, split in 10 μl onto the outer and inner surface of the ear, respectively. One hour after TDI challenge 5 mice were treated with AWD 12-281 (3%), 5 mice were sham treated. Before as well as 1, 5 and 24 h after challenge, the ear thickness was measured.

Data set [2] concerns macrophage inflammatory protein 2. Nature of the data set: MIP-2 in homogenized mouse ears after TDI challenge (ELISA). The format is in vivo, BALB/c-mice. On the procedure:
(§1) One part of the collected ears was fixed in 4% formaldehyde for histological section and stained with haematoxylin-eosin with respect to dermal thickness and granulocyte accumulation. These parameters were measured in 10 fields at 40 times magnification. The remaining tissue was shock-frozen and stored in liquid nitrogen immediately after sampling. For the determination of biochemical parameters, the mice ears were homogenized under liquid nitrogen. The homogenates were taken in 200 μl RPMI 1640 medium and the protease inhibitor Pefabloc® (1 mmol) was added and the samples were mixed intensively. After centrifugation (10000 g, 10 min, 4° C.), the supernatant was collected and the protein content was determined. The samples were stored at −80° C. until the cytokines were determined. Interleukin (IL) 4, IL-6 and MIP-2 were measured in the samples by ELISA using commercially available kits according to manufacturers instructions.

For data set [3], the system named is domestic pigs. The following applies: Kuss et al., 2002; cited from earlier work.
Data set [4] relates to human cells from nasal polyps. The following applies: antigen stimulated; Kuss et al., 2002; cited from earlier work.
The subject of data set [5] is PDE4. Conditions: Griswold et al., 1998, Kuss et al., 2002; cited from earlier work.
Data set [6] concerns granulocyte influx in the dermis of mice ears. Put plainly: Histological examination of mouse ear skin after TDI challenge. It counts as in vivo, BALB/c-mice. On the procedure:
as §1

The subject of data set [7] is mice sensitized to TDI. Nature of the data set: Mouse ear swelling test in mice sensitized to toluene-2,4-diisocyanate (TDI), topical application. Conditions: for TDI-induced ear swelling: AWD 12-281 1%, cilomilast 3%, diflorasone 0.05%. The format is in vivo, BALB/c-mice. The protocol: FIG. 6: Effect of PDE 4 inhibitors on TDI induced ear swelling in mice. […] After 1 h (grey bars) groups of mice were treated with 3% AWD 12-281, 10% cilomilast or left untreated (TDI). After 24 h, ear swelling was determined (black bars). […] Female BALB/c-mice were obtained from Charles River (Sulzfeld, Germany) at the age of 8 weeks (20 g body weight). All animals were healthy and were housed in groups of six mice per cage at 22° C. with a 12-h light/dark-cycle. Water and a standard diet (Altromin, […], Germany) were available ad libitum. After settling in for 1 week, the abdominal skin of the mice was shaved and depilated with Veet®. Subsequently, the horny layers of the abdominal skin were stripped off ten times with adhesive tapes. […] Before as well as 24 h after challenge, the ear thickness was measured with a cutimeter (model 7309, Mitutoyo, Neuss, Germany) The swelling was calculated by comparison of the values before challenge with 24 h after challenge. […] The other mice were equally distributed to the treatment groups (n=6) according to their swelling intensity, so that each group contained animals which had responded to varying extents. They had to rest until the ear thickness had reached almost a normal level after 7 days. To exclude residues of the allergen on the ears, the untreated right ears were used for the main experiment. One group of mice (n=6) was not sensitized and challenged. […] Two hours before TDI-challenge, the third and fourth group (each n=6) were treated with 20 μl (10 μl on both, the inner and outer surface) AWD 12-281 (1%=200 μg) or 20 μl cilomilast (3%=600 μg; each in acetone/DMSO 9:1) to the right ears. […] These mice were sacrificed by cervical dislocation 24 hours after TDI challenge and the ears were collected (see below). […] Five weeks after the first challenge, the animals treated with AWD 12-281 (1%) and cilomilast (3%) “therapeutically” were challenged again. Before challenge, one group was treated with AWD 12-281 (3%).

In data set [8] the test system is human eosinophils. The following applies: in vitro; Ezeamuzie, 2001; cited from earlier work.
The subject of data set [9] is passively sensitized human airways. The following applies: Schmidt et al., 2000; cited from earlier work.
The subject of data set [10] is interleukin 4. Put plainly: IL-4 in homogenized mouse ears after TDI challenge (ELISA). It counts as in vivo, BALB/c-mice. The protocol:
as §1

Where [11] appears, read: 24 h after TDI challenge, AWD 12-281 3%, rechallenge.
The mark [12] stands for this setting: 24 h after TDI challenge, topical 2 h before challenge, AWD 12-281 1%, cilomilast 3%, diflorasone 0.05%.
[13] abbreviates: AWD 12-281 3%, cilomilast 3%, diflorasone 0.05%, 24 h after TDI challenge.

Where “and” joins values, the source holds several entries; their conditions need not be identical. Equal entries are not always repeated. Entries after “also recorded” stand apart in the source; their conditions may differ.

Turning to `O=C(Nc1c(Cl)cncc1Cl)C(=O)c1cn(Cc2ccc(F)cc2)c2ccc(O)cc12` [AWD 12-281, N-(3,5-Dichloro-4-pyridinyl)-2-[1-(4-fluoro-benzyl)-5-hydroxy-1 H-indol-3-yl]-2-oxoacetamide], the “TDI induced ear swelling” value is given as “no significant difference between the groups” in [1] (1 and 5 h after challenge); “slight inhibition” in data set [1] (5 h after challenge); “nearly abolished the TDI induced swelling; also recorded: inhibited the swelling significantly” in [1] (24 h after challenge); “reduced ear swelling significantly” in data set [7] (treated 1 h after 0.5% TDI, 3% AWD 12-281, 10% cilomilast, ear swelling after 24 h (FIG. 6)). Moreover, the “concentration of MIP-2 in mouse skin” value in data set [2] (setting [11]) was “diminished the increase of the MIP-2 concentration significantly”. Moreover, in [2] (setting [12]), the “concentration of macrophage inflammatory protein 2 in homogenized mouse ears” value is listed as “reduced the increase slightly; also recorded: reduced this increase slightly”. For the same compound, the “MIP-2, mean inhibition (%) of the TDI induced synthesis” value in [2] (setting [13]) came to 75%. The same compound displayed an MIP-2 in data set [2] (AWD 12-281 3%, homogenized mouse ears 24 h after TDI challenge (rechallenge), vehicle control 286 ± 39, mean ± s.e.) of 72 ± 8 pg/400 µg protein. Moreover, the “LPS induced lung neutrophilia” value in [3] is given as “inhibitory effects”. In data set [4], the “release of inflammatory mediators such as GM-CSF, TNF-α and histamine” value is on record as “inhibited the release of inflammatory mediators”. Besides, the “IC50 for PDE4 relative to cilomilast” value in data set [5] was “about ten times lower than that of cilomilast”. For the same compound, the “inflammatory cells and vascular leakage, histological examination” value in [6] (AWD 12-281 (3%) treated mouse ears, long term exposure study (not shown)) is “nearly total absense of inflammatory cells and vascular leakage”. In addition, the “edema and influx of inflammatory cells (mainly granulocytes)” value in data set [6] (mouse ear skin 24 h after TDI challenge, topical treatment) is on record as “inhibited these inflammatory processes markedly”. Moreover, the “Ear swelling (%)” value in data set [7] (AWD 12-281 3% topical before challenge, rechallenge five weeks after first challenge, 24 h after TDI challenge, vehicle control 51 ± 7, mean ± s.e.) turned out to be 1 ± 2 %. In addition, the TDI-induced ear swelling entry in [7] (single topical application 2 h before TDI challenge, 1, 5 and 24 h after challenge) is on record as “inhibited the TDI-induced swelling significantly at all measured times”; in [7] (topical 1 h after TDI challenge (therapeutic), 24 h after challenge), “reduced the inflammatory response to TDI significantly; also recorded: inhibited the TDI induced ear swelling significantly”; in data set [7] (topical 1 h after TDI challenge (therapeutic), 24 h after challenge, listed as AWD12-281), “significant inhibition of ear swelling”. Moreover, the “degranulation of human eosinophils” value in [8] is “inhibited the degranulation”. The “bronchospasmogenic effect of an allergen” value in data set [9] is recorded as “significantly reduced the bronchospasmogenic effect of an allergen”. For the same compound, in data set [10] (setting [11]), the “concentration of interleukin 4 in mouse skin” value was “inhibited the increase significantly”. Besides, in [10] (setting [12]), the “concentration of interleukin 4 in homogenized mouse ears” value is on record as “reduced the increase slightly; also recorded: slight inhibitory effect”. The “IL-4, mean inhibition (%) of the TDI induced synthesis” value in [10] (setting [13]) was 80% and 81%. For the same compound, the IL-4 in data set [10] (AWD 12-281 3%, homogenized mouse ears 24 h after TDI challenge (rechallenge), vehicle control 67 ± 2, mean ± s.e.) came out at 12 ± 3 pg/400 µg protein.

(Values after patent US20040038958A1, “Topical treatment of skin diseases” (priority 2002, published 2004).)
